Measured values as given in US6969732B2, “Propylisopropyl acetic acid and propylisopropyl acetamide stereoisomers, a method for their synthesis and pharmaceutical compositions containing them” (Yissum Research Development Company of the Hebrew …, priority 1999, dated 2005).
Read-outs that look alike come from different tables or passages of the source. Marks after values point to notes of the source that are not given here.

Columns and labels:
NMRI mice = details: single 3 mmol/kg subcutaneously in 25% Cremophor EL, day 8 of gestation; for Total Implants: examined day 18
Experimental: Mice of the NMRI strain (Harlan-Winkelmann GmbH, 33176 Borchen, Germany) were kept under controlled conditions: Room temperature (21±1° C.), relative humidity (50±5%), and a 12 hour light-dark cycle with the light period from 10 a.m. to 10 p.m. Females weighing 28 to 36 g were mated with males of the same strain for 3 hours (from 6 a.m. to 9 a.m.). Animals with vaginal plugs were separated, and the following 24 hour period was designated as day 0 of pregnancy. The animals were given free access to food (Altromin 1324 diet, Lage, Germany) and tap water. Approval for the study was obtained from the Department of Health.
Sodium valproate (VPA-Na), racemic PID, (2R)-PID and (2S)-PID were suspended in a 25% Cremophor EL aqueous solution. For another treatment group, VPA-Na was dissolved in distilled water. The pregnant dams were injected with a single 3 mmol/kg subcutaneously dose (10 ml/kg volume administered) on the morning of day 8 of gestation. Mice of the control group were injected with the vehicle, 25% Cremophor EL solution (10 ml/kg volume administered). […] Living fetuses were weighed individually and inspected for the presence of external malformations.

mice [1] = test: Maximal electroshock (MES) test in mice; format: in vivo; details: for MES: intraperitoneal administration
From the text: (§1) Individual enantiomers of PID were screened in mice for their anticonvulsant activity (by the NIH Epilepsy Branch) following intraperitoneal administration to mice by employing a screening procedure which involves: (i) the maximal electoshock (MES) test, which measures seizure spread; (ii) the subcutaneous pentylenetetrazol test sc. Met. Test), which measures seizure threshold; and (iii) the rotorod ataxia test, which assesses neurotoxicity.

mice [2] = test: Subcutaneous pentylenetetrazol (sc Met) test in mice; format: in vivo; details: for sc Met: intraperitoneal administration
From the text: as §1

SWV mice = test: Teratogenicity (Finnel) study in SWV mice; details: for Implants: examined day 18.5
mice [3] = test: Rotorod ataxia test (neurotoxicity) in mice; format: in vivo; details: for Neurotox.: mice, intraperitoneal administration, rotorod ataxia test
From the text: as §1

[4] = Pharmacokinetic studies in mongrel dogs, intravenous injection; format: in vivo; details: for clearance / MRT / half-life / Vd: mongrel, dog, plasma; for clearance: read-out: CL (clearance) (converted); for MRT: read-out: MRT (Mean Residence Time); for half-life: read-out: t½ (converted); for Vd: iv
Experimental: Pharmacokinetic experiments were carried out on six mongrel dogs weighing 18-25 kg. Dogs were housed in an animal farm and were brought to the lab repeatedly every two-three weeks for crossover experiments after an overnight fast. Each dog was inserted with a urine (Levin's tube, Pennine Healthcare, Derby, UK) and two venous (20G/32 mm Venflon 2, Ohmeda, Helsingborg, Sweden) catheters located on different legs. Dogs were fed with commercial dog food four hours after drug injection, and had free access to water during the whole experiment.
Each dog was intravenously injected with […] (10 mg/kg) of each enantiomer separately or […] of the racemate, dissolved in 2 ml of 96% ethyl alcohol. Venous blood samples (6 ml) were withdrawn via an indwelling catheter from the other leg than used for injection, and transferred into heparinized tubes. The blood samples were centrifuged at 3000 g for 10 minutes, plasma was then separated and stored at […] until analyzed. Blood collection commenced at 5 minutes, and continued up to 12 hours after injection. Urine samples were collected in 1-2 hour intervals beginning at 1 hour and up to 12 hours after injection. The urine volume was recorded and an aliquot was stored at […] until analyzed.
Assay of plasma samples: to test tubes containing 2 μg of the internal standard (diisopropyl acetamide), 0.5 ml of plasma (thawed at room temperature) and 5 ml of tert-butyl methyl ether (TBME) was added. The test tubes were vigorously vortexed for 30 sec and centrifuged at 3000 g for 10 minutes. The organic phase was separated and dried under reduced pressure using a vortex evaporator. Samples were then reconstituted with 150 μl of chloroform and dried under reduced pressure without vortexing. The sample was again reconstituted with 30 μl of chloroform, of which 2 μl were injected into the GC apparatus.
The column used for the chromatographic analysis of PID enantiomers was a Mosandl-methyl capillary column (10 m, 0.25 mm, 0.25 μm) coated with: Heptakis (2,3-di-O-methyl-6-O-tert-butyldimethylsilyl)-β-cyclodextrin as the stationary phase and nitrogen as carrier gas (takeo carbohydr res). Column head pressure was set at 50 KPa, split ratio 1:30, oven temperature 120° C., injector temperature 250° C. and detector temperature 250° C.

[5] = SWV mice, single ip 600 mg/kg at day 8.5 of gestation
[6] = enantiomer given in a racemic mixture, 20 mg/kg iv
[7] = given as individual enantiomers, 10 mg/kg iv
[8] = 10 mg/kg, given as individual enantiomers, 10 mg/kg iv, read-out: Vss
[9] = 10 mg/kg, given as individual enantiomers, 10 mg/kg iv, read-out: Vβ (volume of distribution)
[10] = 20 mg/kg, enantiomer given in a racemic mixture, 20 mg/kg iv, read-out: Vss
[11] = ratio (S)-PID to (R)-PID, mice ip
[12] = SWV mice, single ip 500 mg/kg at day 8.5 of gestation
[13] = ratio (S)-PID to (R)-PID, individual enantiomers, 10 mg/kg iv
[14] = ratio (S)-PID to (R)-PID, racemic mixture, 20 mg/kg iv

Compound: CCC[C@@H](C(N)=O)C(C)C [(R)-PID, (R)-propylisopropyl acetamide]
- Embryolethality (percent of total implants) (NMRI mice): 15.2%
- Exencephaly (percent of live fetuses) (NMRI mice): 0 (0) %
- Fetal Weight (NMRI mice): 1.16 ± 0.08 g
- Live Fetuses (NMRI mice): 78 n
- Total Implants (NMRI mice): 92 n
- anticonvulsant activity compared with (2S)-PID, MES test (mice [1]; mice, i.p. administration): more active and showed better potency than (2S)-PID
- MES (mice [1]; mice): 110
- anticonvulsant activity compared with (2S)-PID, sc Met test (mice [2]; mice, i.p. administration): more active and showed better potency than (2S)-PID
- sc Met (mice [2]; mice): 67
- Live Fetuses (SWV mice; [5]): 120
- Resorptior (number) (SWV mice; [5]): 14
- Resorptior (percent of total implants) (SWV mice; [5]): 10.4%
- Implants (SWV mice; [5]): 134
- Neurotox. (mice [3]): <145
- E (liver extraction ratio) [4, 6]: 12.5 ± 4.0%
- Vb [4, 6]: 10.2 ± 0.9 L
- fe (fraction excreted unchanged in the urine) [4, 6]: 0.60 ± 0.45%
- E (liver extraction ratio) [4, 7]: 15.0 ± 4.6%
- fe (fraction excreted unchanged in the urine) [4, 7]: 0.50 ± 0.4%
- clearance compared with (2S)-PID ([4]; iv administration): lower clearance
- half-life compared with (2S)-PID ([4]; iv administration): longer half-life
- clearance [4, 6]: 100 mL/min
- MRT [4, 6]: 2.83 ± 0.6 h
- half-life [4, 6]: 1.25 ± 0.3 h
- clearance [4, 7]: 113 mL/min
- MRT [4, 7]: 2.57 ± 0.5 h
- half-life [4, 7]: 1.37 ± 0.2 h
- Vd [4, 8]: 16 ± 1.2 L
- Vd [4, 9]: 13.1 ± 2.2 L
- Vd [4, 10]: 15.7 ± 1.5 L

Compound: CCCC(C(N)=O)C(C)C (stereo not drawn) [PID, propylisopropyl acetamide]
- Embryolethality (percent of total implants) (NMRI mice): 9.4%
- Exencephaly (percent of live fetuses) (NMRI mice): 0 (0) %
- Fetal Weight (NMRI mice): 1.21 ± 0.07 g
- Live Fetuses (NMRI mice): 87 n
- Total Implants (NMRI mice): 96 n
- MES (mice [1]; mice): 122
- sc Met (mice [2]; mice): 77
- Live Fetuses (SWV mice; [5]): 118
- Resorptior (number) (SWV mice; [5]): 8
- Resorptior (percent of total implants) (SWV mice; [5]): 6.3%
- Implants (SWV mice; [5]): 126
- Exencephaly (number) (SWV mice; SWV mice, single ip 600 mg/kg at day 8.5 of gestation, 600 mg/kg): 0
- Exencephaly (number) (SWV mice; SWV mice, single ip 600 mg/kg at day 8.5 of gestation, listed as racemic, 600 mg/kg): failed to induce exencephaly
- Neurotox. (mice [3]): <120
- stereospecificity of kinetics ([4]; enantiomers given individually, FIG. 4): clear stereospecific kinetics
- stereospecificity of kinetics ([4]; given in a racemic mixture, FIG. 5): no sterospecifity is observed

Compound: CCC[C@H](C(N)=O)C(C)C [(S)-PID, (S)-propylisopropyl acetamide]
- Embryolethality (percent of total implants) (NMRI mice): 9.4%
- Exencephaly (percent of live fetuses) (NMRI mice): 0 (0) %
- Fetal Weight (NMRI mice): 1.15 ± 0.09 g
- Live Fetuses (NMRI mice): 58 n
- Total Implants (NMRI mice): 64 n
- MES (mice [1]; mice): 145
- MES S/R (mice [1]; [11]): 1.32
- sc Met (mice [2]; mice): 80
- sc Met S/R (mice [2]; [11]): 1.19
- maternal lethality (SWV mice; SWV dams, 600 mg/kg ip): several incidences of maternal lethality
- Exencephaly (number) (SWV mice; [12]): 1
- Exencephaly (percent of live fetuses) (SWV mice; [12]): 0.8%
- Live Fetuses (SWV mice; [12]): 123
- Resorptior (number) (SWV mice; [12]): 8
- Resorptior (percent of total implants) (SWV mice; [12]): 6.1%
- Implants (SWV mice; [12]): 131
- Neurotox. (mice [3]): 118
- Neurotox. S/R (mice [3]; [11]): >0.81
- E (liver extraction ratio) [4, 6]: 12.1 ± 4.1%
- Vb [4, 6]: 10.4 ± 1.4 L
- fe (fraction excreted unchanged in the urine) [4, 6]: 0.66 ± 0.46%
- E (liver extraction ratio) [4, 7]: 23.7 ± 3.5%
- fe (fraction excreted unchanged in the urine) [4, 7]: 0.40 ± 0.4%
- clearance [4, 6]: 100 mL/min
- MRT [4, 6]: 2.87 ± 0.7 h
- half-life [4, 6]: 1.27 ± 0.3 h
- clearance [4, 7]: 188 mL/min
- MRT [4, 7]: 1.83 ± 0.3 h
- half-life [4, 7]: 1.04 ± 0.1 h
- Vd [4, 8]: 19.1 ± 2.7 L
- Vd [4, 9]: 17 ± 2.9 L
- Vd [4, 10]: 15.7 ± 0.9 L
- E S/R [4, 13]: 1.58*
- Vβ S/R [4, 13]: 1.29
- fe S/R [4, 13]: 0.78*
- E S/R [4, 14]: 1.0
- Vb S/R [4, 14]: 1.0
- fe S/R [4, 14]: 1.1
